Common to all, as to assay type: biochemical
One experiment addresses T1, 12-LO (Homo sapiens, UniProt P18054).
T1 construct: gene ALOX12
T1 sequence (P18054 1-663): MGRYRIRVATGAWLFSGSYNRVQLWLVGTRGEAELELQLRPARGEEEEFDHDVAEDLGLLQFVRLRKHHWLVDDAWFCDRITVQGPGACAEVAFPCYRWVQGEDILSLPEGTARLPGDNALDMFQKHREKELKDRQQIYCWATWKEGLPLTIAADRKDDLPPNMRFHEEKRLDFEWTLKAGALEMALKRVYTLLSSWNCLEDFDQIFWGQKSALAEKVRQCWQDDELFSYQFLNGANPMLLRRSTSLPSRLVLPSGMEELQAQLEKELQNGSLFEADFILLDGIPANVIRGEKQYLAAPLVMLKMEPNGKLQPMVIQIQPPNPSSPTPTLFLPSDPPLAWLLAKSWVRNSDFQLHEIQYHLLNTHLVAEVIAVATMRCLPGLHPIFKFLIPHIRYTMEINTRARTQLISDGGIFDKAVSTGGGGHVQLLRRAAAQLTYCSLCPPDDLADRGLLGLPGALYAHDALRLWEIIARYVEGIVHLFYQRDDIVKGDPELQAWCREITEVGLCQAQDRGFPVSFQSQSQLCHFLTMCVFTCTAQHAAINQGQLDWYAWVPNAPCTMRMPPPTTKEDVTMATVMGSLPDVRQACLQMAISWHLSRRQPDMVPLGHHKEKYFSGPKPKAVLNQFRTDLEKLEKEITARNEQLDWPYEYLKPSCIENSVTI
The experiment in a line: LC-MS/MS enzyme activity assay, […] enzyme, […] arachidonic acid.

The target of another experiment is T2, 15-lipoxygenase (15-LO) (Homo sapiens, UniProt P16050).
T2 construct: gene ALOX15
T2 sequence (P16050 2-662): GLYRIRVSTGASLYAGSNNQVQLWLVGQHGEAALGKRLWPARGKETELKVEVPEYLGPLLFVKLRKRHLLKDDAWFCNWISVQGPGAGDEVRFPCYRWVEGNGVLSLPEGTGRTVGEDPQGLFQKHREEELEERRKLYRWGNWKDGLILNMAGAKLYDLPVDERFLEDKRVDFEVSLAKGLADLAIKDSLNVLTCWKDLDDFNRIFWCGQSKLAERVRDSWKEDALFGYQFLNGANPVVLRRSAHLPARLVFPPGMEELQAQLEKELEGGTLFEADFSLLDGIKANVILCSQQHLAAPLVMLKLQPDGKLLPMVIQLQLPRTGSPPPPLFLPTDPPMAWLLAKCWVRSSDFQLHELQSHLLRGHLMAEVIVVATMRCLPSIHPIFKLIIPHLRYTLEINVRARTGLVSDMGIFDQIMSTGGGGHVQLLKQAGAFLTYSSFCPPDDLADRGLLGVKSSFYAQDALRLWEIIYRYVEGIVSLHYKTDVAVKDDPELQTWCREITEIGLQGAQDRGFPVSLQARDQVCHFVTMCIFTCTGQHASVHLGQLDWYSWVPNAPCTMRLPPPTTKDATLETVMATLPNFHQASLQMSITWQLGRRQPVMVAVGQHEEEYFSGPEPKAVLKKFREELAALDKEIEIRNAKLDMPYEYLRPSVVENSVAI
Described as above.

The target of the next experiment is T3, 5-lipoxygenase (5-LO) (Homo sapiens, UniProt P09917).
T3 construct: gene ALOX5; full-length human 5-LO
T3 sequence (P09917 1-674): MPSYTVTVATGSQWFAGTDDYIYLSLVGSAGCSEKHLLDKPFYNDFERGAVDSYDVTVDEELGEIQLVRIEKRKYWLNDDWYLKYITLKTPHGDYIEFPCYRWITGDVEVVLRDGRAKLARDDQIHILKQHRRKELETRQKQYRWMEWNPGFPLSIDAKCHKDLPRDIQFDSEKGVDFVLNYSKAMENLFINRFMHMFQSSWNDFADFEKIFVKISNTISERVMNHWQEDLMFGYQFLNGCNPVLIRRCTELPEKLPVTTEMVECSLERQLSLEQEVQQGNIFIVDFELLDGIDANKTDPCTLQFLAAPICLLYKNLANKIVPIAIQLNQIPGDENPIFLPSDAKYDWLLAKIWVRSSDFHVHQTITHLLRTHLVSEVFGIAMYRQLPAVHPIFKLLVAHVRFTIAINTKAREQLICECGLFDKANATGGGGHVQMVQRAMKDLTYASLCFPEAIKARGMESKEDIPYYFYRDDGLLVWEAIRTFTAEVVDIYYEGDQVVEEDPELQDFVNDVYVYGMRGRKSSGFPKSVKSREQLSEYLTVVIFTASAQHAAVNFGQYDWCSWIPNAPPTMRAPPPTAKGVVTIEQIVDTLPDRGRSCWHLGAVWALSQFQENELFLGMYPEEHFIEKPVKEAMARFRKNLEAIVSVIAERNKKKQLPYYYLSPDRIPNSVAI
Description: LC-MS/MS activity assay in lysate of 5-LO-transfected Expi293F cells, […] arachidonic acid.

A further experiment deals with T4, cyclooxygenase (COX-2) (Homo sapiens, UniProt P35354).
T4 construct: gene PTGS2
T4 sequence (P35354 18-604): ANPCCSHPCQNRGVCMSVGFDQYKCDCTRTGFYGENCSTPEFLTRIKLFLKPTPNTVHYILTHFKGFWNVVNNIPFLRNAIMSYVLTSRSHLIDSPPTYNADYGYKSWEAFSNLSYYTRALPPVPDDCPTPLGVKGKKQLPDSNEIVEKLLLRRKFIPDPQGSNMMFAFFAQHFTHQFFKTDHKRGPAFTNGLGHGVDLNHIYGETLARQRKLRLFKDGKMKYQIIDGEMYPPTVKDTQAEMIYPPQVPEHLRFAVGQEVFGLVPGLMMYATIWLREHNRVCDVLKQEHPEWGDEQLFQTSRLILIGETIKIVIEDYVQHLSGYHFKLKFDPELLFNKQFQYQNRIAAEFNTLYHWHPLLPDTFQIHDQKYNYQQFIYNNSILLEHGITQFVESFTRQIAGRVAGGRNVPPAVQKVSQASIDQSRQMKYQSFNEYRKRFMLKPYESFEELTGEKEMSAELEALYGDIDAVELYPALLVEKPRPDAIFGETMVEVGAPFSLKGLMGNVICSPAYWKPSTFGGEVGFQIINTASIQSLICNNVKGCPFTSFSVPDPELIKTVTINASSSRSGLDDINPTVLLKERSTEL
The experiment in a line: in vitro enzyme activity assay (product formation by LC-MS/MS).

pIC50: −log10 of the molar value.

A word on the pIC50: it is the IC50 on a negative log10 scale, so that one unit is a factor of ten. A higher pIC50 goes with a small IC50.

For the substance PTC-041 hydroquinone, the negative logarithm of the IC50 (pIC50) at 12-LO was 5.28; against 15-lipoxygenase (15-LO), 6.02; on 5-lipoxygenase (5-LO), 6.34; against cyclooxygenase (COX-2) it was 5.02.

Values taken from article PMC11410249 (PLOS ONE, 2024).
